Assay results: ChEMBL document CHEMBL4364326, “Design, synthesis and biological evaluation of 2-(4-alkoxy-3-cyano)phenyl-6-oxo-1,6-dihydropyrimidine-5-carboxylic acid derivatives as novel xanthine oxidase inhibitors” (Eur J Med Chem, 2019)
Active and inactive are the calls of the source. The rule behind the calls is not given here.

What was measured:
Rattus norvegicus [1] = experiment: Anti-hyperuricemic activity in potassium oxonate-induced acute hyperuricemia Sprague-Dawley rat model assessed as reduction in AUC of uric acid in serum at 5 mg/kg, ig pretreated for 1 hr followed by potassium oxonate challenge and measured at 2 hrs post drug administration (reference value: 23%); assay type: functional; conditions: po
[2] = molecular target: T1, Xanthine dehydrogenase/oxidase (Bos taurus, UniProt P80457); experiment: Inhibition of bovine xanthine oxidase assessed as reduction in uric acid formation using xanthine as substrate preincubated with enzyme for 15 mins followed by substrate addition and measured every 30 secs for 2 mins by spectrophotometric method
[3] = molecular target: T1, Xanthine dehydrogenase/oxidase; experiment: Potency index, Ratio of allopurinol IC50 to compound IC50 for bovine xanthine oxidase using xanthine as substrate by spectrophotometry; conditions: cattle
Rattus norvegicus [4] = experiment: Anti-hyperuricemic activity in potassium oxonate-induced acute hyperuricemia Sprague-Dawley rat model assessed as reduction in AUC of uric acid in serum at 10 mg/kg, ig pretreated for 1 hr followed by potassium oxonate challenge and measured at 2 hrs post drug administration (reference value: 23%); assay type: functional; conditions: po
[5] = molecular target: T1, Xanthine dehydrogenase/oxidase; experiment: Mixed type inhibition of bovine xanthine oxidase assessed as increase in Km with decrease in Vmax of the enzyme using xanthine as substrate preincubated with enzyme for 15 mins followed by substrate addition and measured every 30 secs for 2 mins by Lineweaver-Burk plot analysis; conditions: cattle
Rattus norvegicus [6] = experiment: Anti-hyperuricemic activity in potassium oxonate-induced acute hyperuricemia Sprague-Dawley rat model assessed as reduction in uric acid level in serum at 5 mg/kg, ig pretreated for 1 hr followed by potassium oxonate challenge and measured at 2 hrs post drug administration; assay type: functional, organism-based
[7] = Acute oral toxicity in KM mouse assessed as change in behavior at 2000 mg/kg measured for 24 hrs; assay type: organism-based; conditions: in vivo
[8] = Acute oral toxicity in KM mouse measured for 24 hrs by OCED guideline method; conditions: in vivo

T1 sequence (P80457 whole entry): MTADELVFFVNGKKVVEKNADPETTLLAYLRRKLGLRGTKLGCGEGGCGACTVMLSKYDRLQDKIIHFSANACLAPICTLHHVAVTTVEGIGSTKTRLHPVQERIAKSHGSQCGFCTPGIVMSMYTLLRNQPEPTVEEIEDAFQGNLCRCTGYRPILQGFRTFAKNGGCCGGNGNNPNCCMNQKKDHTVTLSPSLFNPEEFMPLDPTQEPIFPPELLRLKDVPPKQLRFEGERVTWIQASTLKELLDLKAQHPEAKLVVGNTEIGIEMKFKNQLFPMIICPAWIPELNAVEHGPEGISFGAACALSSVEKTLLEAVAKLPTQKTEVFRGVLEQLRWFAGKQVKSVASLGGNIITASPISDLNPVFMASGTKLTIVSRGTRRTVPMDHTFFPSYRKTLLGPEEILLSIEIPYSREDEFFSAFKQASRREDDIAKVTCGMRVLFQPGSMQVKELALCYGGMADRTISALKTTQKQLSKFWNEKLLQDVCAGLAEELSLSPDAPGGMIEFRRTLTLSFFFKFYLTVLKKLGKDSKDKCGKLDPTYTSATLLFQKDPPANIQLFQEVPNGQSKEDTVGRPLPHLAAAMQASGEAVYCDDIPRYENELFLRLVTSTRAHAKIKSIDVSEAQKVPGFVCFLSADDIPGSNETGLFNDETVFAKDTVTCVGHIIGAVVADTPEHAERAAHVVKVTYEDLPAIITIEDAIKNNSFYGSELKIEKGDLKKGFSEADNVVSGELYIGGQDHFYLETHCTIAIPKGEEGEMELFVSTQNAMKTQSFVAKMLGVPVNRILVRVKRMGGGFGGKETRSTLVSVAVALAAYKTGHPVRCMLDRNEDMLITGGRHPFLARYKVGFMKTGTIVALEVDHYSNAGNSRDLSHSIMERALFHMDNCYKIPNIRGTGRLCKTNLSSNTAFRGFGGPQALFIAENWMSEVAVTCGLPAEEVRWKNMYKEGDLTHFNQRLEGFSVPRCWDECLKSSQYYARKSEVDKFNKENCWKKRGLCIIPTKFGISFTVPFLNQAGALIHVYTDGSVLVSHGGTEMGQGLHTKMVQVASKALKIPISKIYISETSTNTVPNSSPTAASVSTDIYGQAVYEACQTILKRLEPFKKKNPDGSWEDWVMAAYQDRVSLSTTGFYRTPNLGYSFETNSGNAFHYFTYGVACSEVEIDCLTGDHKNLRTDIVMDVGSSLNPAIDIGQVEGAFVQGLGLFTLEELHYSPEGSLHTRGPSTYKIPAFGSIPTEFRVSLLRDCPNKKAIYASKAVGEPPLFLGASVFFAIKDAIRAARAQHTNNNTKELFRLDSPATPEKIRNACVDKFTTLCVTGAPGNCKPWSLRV

Row | Compound | IC50 [2] | further results
1 | Cc1nc(-c2ccc(OCC(C)C)c(C#N)c2)sc1C(=O)O [FEBUXOSTAT] | – | inhibition in vivo at 5 mg/kg (Rattus norvegicus [1]): 50.8%
2 | C=C(C)COc1ccc(-c2ncc(C(=O)O)c(=N)[nH]2)cc1C#N | 0.0181 µM | Ratio IC50 [3]: 419
3 | C=CCOc1ccc(-c2ncc(C(=O)O)c(=O)[nH]2)cc1C#N | 0.0811 µM | –
4 | CC(C)Oc1ccc(-c2ncc(C(=O)O)c(=O)[nH]2)cc1C#N | 0.0916 µM | –
5 | Oc1ncnc2[nH]ncc12 [ALLOPURINOL] | – | inhibition in vivo at 10 mg/kg (Rattus norvegicus [4]): 38.7%
6 | CC(C)CCOc1ccc(-c2ncc(C(=O)O)c(=N)[nH]2)cc1C#N | – | inhibition (INH) [5]: Active; inhibition (Rattus norvegicus [6]): Active; Activity [7]: Non-Toxic; LD50 at 24 h [8]: > 2000 mg/kg; inhibition in vivo at 5 mg/kg (Rattus norvegicus [1]): 36.1%
7 | CC(C)=CCOc1ccc(-c2ncc(C(=O)O)c(=O)[nH]2)cc1C#N | 0.0388 µM | –
8 | C=C(C)COc1ccc(-c2ncc(C(=O)O)c(=O)[nH]2)cc1C#N | 0.0336 µM | –
9 | N#Cc1cc(-c2ncc(C(=O)O)c(=N)[nH]2)ccc1OCc1ccc(Br)cc1 | 0.0271 µM | –
10 | CC(C)COc1ccc(-c2ncc(C(=O)O)c(=O)[nH]2)cc1C#N | 0.0609 µM | –
11 | CC(C)CCOc1ccc(-c2ncc(C(=O)O)c(=O)[nH]2)cc1C#N | 0.025 µM | –
12 | N#Cc1cc(-c2ncc(C(=O)O)c(=O)[nH]2)ccc1OCc1ccccc1 | 0.0387 µM | –

More lines, main results first:

Row | IC50 [2] | Compound | further results
13 | 0.0382 µM | N#Cc1cc(-c2ncc(C(=O)O)c(=O)[nH]2)ccc1OCc1ccc(F)cc1 | –
14 | 0.0339 µM | Cc1ccc(COc2ccc(-c3ncc(C(=O)O)c(=N)[nH]3)cc2C#N)cc1 | –
15 | 0.54 µM | Cc1nc(-c2ccc(OCCC(C)C)c(C#N)c2)[nH]c(=O)c1C(=O)O | –
16 | 0.0499 µM | N#Cc1cc(-c2ncc(C(=O)O)c(=O)[nH]2)ccc1OCc1ccc(Cl)cc1 | –
17 | 0.197 µM | CC(C)(C)c1ccc(COc2ccc(-c3ncc(C(=O)O)c(=O)[nH]3)cc2C#N)cc1 | –
18 | 0.0298 µM | N#Cc1cc(-c2ncc(C(=O)O)c(=O)[nH]2)ccc1OCc1ccc(Br)cc1 | –
19 | 0.185 µM | Cc1nc(-c2ccc(OCc3ccc(Br)cc3)c(C#N)c2)[nH]c(=O)c1C(=O)O | –
20 | 0.159 µM | Cc1ccc(COc2ccc(-c3nc(C)c(C(=O)O)c(=O)[nH]3)cc2C#N)cc1 | –
21 | 0.0354 µM | Cc1ccc(COc2ccc(-c3ncc(C(=O)O)c(=O)[nH]3)cc2C#N)cc1 | –
22 | 0.568 µM | C=C(C)COc1ccc(-c2nc(C)c(C(=O)O)c(=O)[nH]2)cc1C#N | –
